According to patent US12390456B2, “Pridopidine for treating Huntington's disease” (PRILENIA NEUROTHERAPEUTICS LTD., priority 2013, dated 2025):
Like-named read-outs stand apart in the source and are kept apart here.

Legend:
patients with HD [1] = settings: 26 weeks; 67.5 mg, 90 mg and 112.5 mg bid
From the text: The Modified Physical Performance Test (mPPT) is used instead of the Physical Performance Test (PPT). The Walk-12 scale in used instead of the Multiple Sclerosis Walking Scale (MSWS).

patients with HD [2] = settings: 12 weeks; 67.5 mg, 90 mg and 112.5 mg bid
Description: The primary efficacy variable and endpoint for this study is change from baseline in the UHDRS-TMS (defined as the sum of all UHDRS motor domains ratings) at Week 12.
The change from baseline in TMS is analyzed using a Repeated Measures model (SAS® MIXED procedure with REPEATED sub-command). The model includes the following fixed effects: categorical week in trial by treatment interaction, center, neuroleptic use or no use and baseline TMS score. The unstructured covariance matrix for repeated observations within patients is used.

patients with HD [3] = settings: 26 weeks; 67.5 mg, 90 mg and 112.5 mg bid; remark: listed apart in the source
From the text: The model includes the following fixed effects: categorical week in study by treatment interaction, center, neuroleptic use or no use, and baseline UHDRS-TMS score. The unstructured covariance matrix for repeated observations within patients is used.

patients with HD [4] = system: patients with HD
Description: Study ACR16C007 explored the efficacy of 44 mg pridopidine once daily (qd) in 58 patients.

patients with HD [5] = settings: cited from earlier work

Row | SMILES | changes from baseline in UHDRS-TMS (patients with HD [1]) | changes from baseline in TMS (patients with HD [2]) | changes from baseline in UHDRS-TMS (patients with HD [3]) | effect on mMS (patients with HD [4]; 45 mg bid, HART and MermaiHD) | improvement in UHDRS-TMS relative to placebo (patients with HD [4]; 45 mg bid, MermaiHD and HART) | findings on the TMS (patients with HD [4]; HART and MermaiHD) | efficacy in treating motor symptoms in HD (mMS and TMS) (patients with HD [4]; HART study, 10, 22.5 and 45 mg bid, 12 weeks) | effect on motor components other than chorea (patients with HD [5]; in vivo) | improvement on the UHDRS-TMS (patients with HD [5]; p=0.075, 45 to 47 points at baseline)
1 | CCCN1CCC(c2cccc(S(C)(=O)=O)c2)CC1 [pridopidine, 4-[3-(methylsulfonyl)phenyl]-1-propyl-piperidine] | Statistically significant changes | Statistically significant changes | Statistically significant changes | did not reach the pre-specified significance criteria | approximately 3 points | statistically significant findings | dose-dependent efficacy |  | 
2 | COc1cc2c(cc1OC)C1CC(=O)C(CC(C)C)CN1CC2 (stereo not drawn) [tetrabenazine] |  |  |  |  |  |  |  | no significant effect | 3.3 points
